The test system of experiment [1] is MFN1 and MFN2 expression in C2C12 cells. In words: Western blot analysis of MFN1 and MFN2 expression in C2C12 cells stably expressing ALCAT1 or vector control, treated with H2O2. The experiment is classed as cell-based. A general note: Immunoblotting shows a protein as a band on a membrane.
Protocol: FIG. 7G: Western blot analysis of MFN1 and MFN2 expression in C2C12 cells stably expressing vector, ALCAT1, or ALCAT1 but were pretreated various doses (0, 1M, and 5M) of diphenyliodonium (DPI), an NADPH oxidase inhibitor, prior to treatment with 1.5 mM of H2O2.
The C2C12-A1 cells and vector control were treated with increasing doses of H2O2 as used in FIG. 7E, followed by analysis of MFN2 expression by western blot analysis.
For experiment [2], the system named is phosphorylation of Akt and Erk in H9c2 cells. In words: Western blot analysis of phosphorylation of Akt and Erk in H9c2 cardiac cells stimulated with insulin. It counts as cell-based. Conditions: vector control H9c2 cells, indicated doses of insulin, FIG. 17A. The protocol:
FIGS. 17A-17B: H9c2 cardiac cells stably expressing ALCAT1 or vector control were stimulated with indicated doses of insulin (FIG. 17A) or with 100 nM of T3 for the indicated time (FIG. 17B), followed by analysis of phosphorylation of Akt, Erk, S6K1, and 4E-BP by western blot analysis using β-actin as an internal control. FIG. 17C: WT and KO mice were treated with vehicle or T4 for 28 days, followed by Western blot analysis of phosphorylation of Akt, GSK3α/β, and 4E-BP in cardiomyocytes by Western blot analysis using GAPDH as an internal control.
Oxidative Stress by ALCAT1 Regulates Akt-mTOR Signal Transduction Pathways in Cardiomyopathy: Hyperthyroidism leads to cardiomyopathy by stimulating protein synthesis in the cardiomyocytes. To identify molecular mechanisms underlying a role of ALCAT1 in hypertrophic growth, the effects of ALCAT1 overexpression and deficiency were analyzed on signal transduction pathways involved in cellular growth and proliferation, including phosphorylation of Akt, Erk, S6K, and 4E-BP1, in H9c2 cells and in mice with hyperthyroidism. Increased ROS levels lead to insulin resistance which plays a causative role in cardiac dysfunction. […] In support of the findings in H9c2 cells, short term treatment of mice with thyroid hormone stimulated cardiac Akt-mTOR phosphorylation in both ALCAT1 knockout mice and the WT mice (FIG. 20).

For `c1ccc2c(c1)[I+]c1ccccc1-2` [DPI, diphenyleneiodonium], the “loss of MFN expression in response to H2O2” value in experiment [1] (C2C12-A1 cells (stably expressing ALCAT1) pre-incubated with DPI (0, 1M, and 5M) prior to 1.5 mM H2O2, FIG. 7G) is on record as “dose-dependently prevented the loss of MFN expression”. Take `OO` [H2O2, Hydrogen Peroxide]: the “MFN1 and MFN2 expression” value in experiment [1] (vector control C2C12 cells, increasing doses of H2O2, FIG. 7F) was “dose-dependently depleted MFN1 and MFN2 expression”. Take “insulin: hormone used to stimulate Akt and Erk phosphorylation in H9c2 cells”: in experiment [2], the “phosphorylation of Akt and Erk” value was “dose-dependently stimulated phosphorylation of Akt and Erk”.

The values above are taken from patent US10526418B2, “Modulators of ACYL-COA lysocardiolipin acyltransferase 1 (ALCAT1) and uses thereof” (priority 2012, dated 2020).
